Values of other authors, collected in patent US20110250279A1, “CONTROLLED-RELEASE COMPOSITION FOR PRODUCING SUSTAINED-RELEASE PREPARATION CONTAINING UDENAFIL” (Dong-A Pharm. Co., Ltd., priority 2008, published 2011).

Legend:
[1] = phase 1 clinical tests (Koreans and Caucasians)
[2] = not given; remark: listed apart in the source
PDE-5 = PDE-5 (Homo sapiens, UniProt O76074)

CCCOc1ccc(S(=O)(=O)NCCC2CCCN2C)cc1-c1nc2c(CCC)nn(C)c2c(=O)[nH]1 (stereo not drawn) [Udenafil, 3-(1-methyl-7-oxo-3-propyl-4,7-dihydro-1H-pyrazolo[4,3-d]pyrimidin-5-yl)-N-[2-(1-methylpyrrolidin-2-yl)ethyl]-4-propoxybenzenesulfonamide]
serious abnormal reactions by drugs [1]: did not generate serious abnormal reactions
volume of distribution in vivo: large volume of distribution
absorption (in vivo): rapidly absorbed
bioavailability (in vivo): high bioavailability
half life relative to sildenafil or vardenafil (in vivo): about three times longer
drug discontinuation rate ([2]; during the clinical tests): lowest
extent and frequency of side effects ([2]; phase 2 and 3 clinical tests, versus conventional oral therapeutic agents for erectile dysfunction): lower
inhibitory activity for PDE-5 (PDE-5): strong inhibitory activity
selectivity for PDE-5 (PDE-5): high selectivity
